Reference: patent US20240382482A1, “PLASMA KALLIKREIN INHIBITORS” (TAKEDA PHARMACEUTICAL COMPANY LIMITED, priority 2021, published 2024)

Molecular target: human activated kallikrein enzyme (Homo sapiens, UniProt P03952)
Test: Inhibition of human activated kallikrein enzyme, fluorogenic peptide substrate assay (500 pM enzyme format)
Type: biochemical
Conditions: 500 pM activated kallikrein, 300 μM PFR-AMC substrate, 30 min preincubation, 10 min reaction, room temperature; read-out: Primary Dose Response Assay: Average EC50
Description: Compounds were evaluated for inhibition of the human activated kallikrein enzyme in two formats of an assay employing a fluorogenic peptide substrate. In one assay format, the concentrations of reagents were as follows: 20 mM Tris pH 7.5, 1 mM EDTA, 150 mM sodium chloride, 0.1% PEG-400, 0.1% Triton X-100, 500 pM activated kallikrein enzyme, 300 μM Pro-Phe-Arg-7-amido-4-methylcoumarin (PFR-AMC) substrate. Prior to reaction initiation with substrate, enzyme and inhibitors were preincubated for 30 min at room temperature. After initiation with substrate, reactions were incubated for 10 min at room temperature and fluorescence emission at 460 nm from 380 nm excitation measured with a microplate reader. In another assay format, the concentrations of reagents were as follows: 20 mM Tris pH 7.5, 1 mM EDTA, 150 mM sodium chloride, 0.1% PEG-400, 0.1% Triton X-100, 5 pM activated kallikrein enzyme, 300 uM PFR-AMC substrate. Prior to reaction initiation with substrate, enzyme and inhibitors were preincubated for 30 min at room temperature. After initiation with substrate, reactions were incubated for 18 hr at room temperature and fluorescence emission at 460 nm from 380 nm excitation measured with a microplate reader.
Table 1 provides the results of the assay in the format with 500 pM activated kallikrein assay. For the compounds listed in Table 1, the EC50 values are reported according to the following ranges: A≤5.0 nM; 5.0 nM<B≤50 nM; 50 nM<C≤500 nM; 500 nM<D≤9000 nM; 9000 nM<E.

Chain of human activated kallikrein enzyme (P03952 391-638 limits assumed): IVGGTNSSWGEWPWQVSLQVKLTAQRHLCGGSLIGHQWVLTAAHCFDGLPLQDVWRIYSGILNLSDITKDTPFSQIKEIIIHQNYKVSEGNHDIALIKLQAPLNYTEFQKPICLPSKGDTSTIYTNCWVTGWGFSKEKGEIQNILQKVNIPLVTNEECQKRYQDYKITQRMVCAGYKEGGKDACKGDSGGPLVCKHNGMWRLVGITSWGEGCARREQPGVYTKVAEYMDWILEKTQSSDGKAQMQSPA
Chain of human activated kallikrein enzyme (P03952 20-390 partner limits assumed): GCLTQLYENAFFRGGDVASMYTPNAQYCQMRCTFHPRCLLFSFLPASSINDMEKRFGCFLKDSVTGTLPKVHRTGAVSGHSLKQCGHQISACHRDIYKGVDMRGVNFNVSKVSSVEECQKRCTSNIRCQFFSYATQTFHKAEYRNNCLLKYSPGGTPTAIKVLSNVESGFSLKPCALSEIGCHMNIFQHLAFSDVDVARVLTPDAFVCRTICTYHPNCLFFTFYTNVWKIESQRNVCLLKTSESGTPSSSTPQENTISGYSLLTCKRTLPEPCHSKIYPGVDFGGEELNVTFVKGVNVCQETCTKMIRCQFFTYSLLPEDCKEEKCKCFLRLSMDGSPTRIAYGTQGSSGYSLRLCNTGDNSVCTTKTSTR

Row | Structure (SMILES) | EC50
1 | NC(=O)Cc1cc2c(Cl)cn(-c3cc(NCc4cn5cc(C6CC6)ccc5n4)ccn3)c2cc1F [Example 127, 2-(3-chloro-1-(4-(((6-cyclopropylimidazo[1,2-a]pyridin-2-yl)methyl)amino)pyridin-2-yl)-6-fluoro-1H-indol-5-yl)acetamide] | 500 to 9000 nM
2 | N#Cc1cc(C2CC2)cn2cc(CNc3cc(NC(=O)Cc4ncn5ccc(Cl)cc45)ncn3)nc12 [Example 13, 2-(7-chloroimidazo[1,5-a]pyridin-1-yl)-N-(6-(((8-cyano-6-cyclopropylimidazo[1,2-a]pyridin-2-yl)methyl)amino)pyrimidin-4-yl)acetamide] | ≤ 5 nM
3 | N#Cc1ccc(Cl)cc1CC(=O)Nc1cc(NCc2cn3cc(C4CC4)ccc3n2)ncn1 [Example 2, 2-(5-chloro-2-cyanophenyl)-N-(6-(((6-cyclopropylimidazo[1,2-a]pyridin-2-yl)methyl)amino)pyrimidin-4-yl)acetamide] | 500 to 9000 nM
4 | COC(C(=O)Nc1cc(NCc2cn3cc(C4CC4)ccc3n2)ncn1)c1ncn2ccc(Cl)cc12 (centres unmarked) [Example 6, 2-(7-chloroimidazo[1,5-a]pyridin-1-yl)-N-(6-(((6-cyclopropylimidazo[1,2-a]pyridin-2-yl)methyl)amino)pyrimidin-4-yl)-2-methoxyacetamide] | 50 to 500 nM
5 | CCOC(=O)c1nc(NCc2c(C)cc(C(=N)N)cc2C)cc(OCc2cn3cc(C4CC4)ccc3n2)n1 [Example 82, ethyl 4-((4-carbamimidoyl-2,6-dimethylbenzyl)amino)-6-((6-cyclopropylimidazo[1,2-a]pyridin-2-yl)methoxy)pyrimidine-2-carboxylate] | ≤ 5 nM
6 | O=C(Nc1cc(NCc2cn3cc(C4CC4)ccc3n2)ccn1)c1ccc2ccc(Cl)cc2c1 [Example 118, 7-chloro-N-(4-(((6-cyclopropylimidazo[1,2-a]pyridin-2-yl)methyl)amino)pyridin-2-yl)-2-naphthamide] | 50 to 500 nM
7 | O=C(/C=C/c1cccc(Cl)c1)Nc1cc(NCc2cn3cc(C4CC4)ccc3n2)ccn1 [Example 114, (E)-3-(3-chlorophenyl)-N-(4-(((6-cyclopropylimidazo[1,2-a]pyridin-2-yl)methyl)amino)pyridin-2-yl)acrylamide] | 5 to 50 nM
8 | O=C(Cn1ccc2ccc(Cl)cc21)Nc1cc(NCc2cn3cc(C4CC4)ccc3n2)ccn1 [Example 115, 2-(6-chloro-1H-indol-1-yl)-N-(4-(((6-cyclopropylimidazo[1,2-a]pyridin-2-yl)methyl)amino)pyridin-2-yl)acetamide] | 500 to 9000 nM
9 | C[C@H](c1cccc(Cl)c1)[C@@H](C)C(=O)Nc1cc(NCc2cn3cc(C4CC4)ccc3n2)ncn1 [Example 134, (2R,3S)-3-(3-chlorophenyl)-N-(6-(((6-cyclopropylimidazo[1,2-a]pyridin-2-yl)methyl)amino)pyrimidin-4-yl)-2-methylbutanamide] | 500 to 9000 nM
10 | COc1ccc2oc(=O)n(CC(=O)Nc3cc(NCc4cn5cc(C6CC6)ccc5n4)ncn3)c2c1 [Example 122, N-(6-(((6-cyclopropylimidazo[1,2-a]pyridin-2-yl)methyl)amino)pyrimidin-4-yl)-2-(5-methoxy-2-oxobenzo[d]oxazol-3 (2H)-yl)acetamide] | > 9000 nM
11 | Cc1cc(CN)cc(C)c1CNc1cc(OCc2cn3cc(C4CC4)ccc3n2)ncn1 [Example 108, N-(4-(aminomethyl)-2,6-dimethylbenzyl)-6-((6-cyclopropylimidazo[1,2-a]pyridin-2-yl)methoxy)pyrimidin-4-amine] | ≤ 5 nM
12 | O=C(Nc1cc(NCc2cn3cc(C4CC4)ccc3n2)ncn1)C(=O)c1ncn2ccc(Cl)cc12 [Example 54, 2-(7-chloroimidazo[1,5-a]pyridin-1-yl)-N-(6-(((6-cyclopropylimidazo[1,2-a]pyridin-2-yl)methy)amino)pyrimidin-4-yl)-2-oxoacetamide] | ≤ 5 nM
13 | COc1ccc2oc(=O)n(CC(=O)Nc3cc(NCc4cn5cc(C6CC6)ccc5n4)ccn3)c2c1 [Example 125, N-(4-(((6-cyclopropylimidazo[1,2-a]pyridin-2-yl)methyl)amino)pyridin-2-yl)-2-(5-methoxy-2-oxobenzo[d]oxazol-3 (2H)-yl)acetamide] | > 9000 nM
14 | O=C(Cc1ncn2ccc(Cl)cc12)Nc1cc(NCc2cn3cc(C4CC4)cc(CO)c3n2)ncn1 [Example 44, 2-(7-chloroimidazo[1,5-a]pyridin-1-yl)-N-(6-(((6-cyclopropyl-8-(hydroxymethyl)imidazo[1,2-a]pyridin-2-yl)methyl)amino)pyrimidin-4-yl)acetamide] | ≤ 5 nM
15 | O=C(Cc1ncn2ccc(Cl)cc12)Nc1cc(NCc2cn3cc(C4CC4)ccc3n2)ccn1 [Example 25, 2-(7-chloroimidazo[1,5-a]pyridin-1-yl)-N-(4-(((6-cyclopropylimidazo[1,2-a]pyridin-2-yl)methyl)amino)pyridin-2-yl)acetamide] | ≤ 5 nM
16 | CC(C(=O)Nc1cc(NCc2cn3cc(C4CC4)ccc3n2)ncn1)c1ncn2ccc(Cl)cc12 (centres unmarked) [Example 4, 2-(7-chloroimidazo[1,5-a]pyridin-1-yl)-N-(6-(((6-cyclopropylimidazo[1,2-a]pyridin-2-yl)methyl)amino)pyrimidin-4-yl)propanamide] | 5 to 50 nM

Now from value to compound:

Row | EC50 | Structure (SMILES)
17 | 500 to 9000 nM | Clc1cccc([C@H]2C[C@@H]2CNc2cc(NCc3cn4cc(C5CC5)ccc4n3)ncn2)c1 [Example 138, N^4-(((1S,2S)-2-(3-chlorophenyl)cyclopropyl)methyl)-N^6-((6-cyclopropylimidazo[1,2-a]pyridin-2-yl)methyl)pyrimidine-4,6-diamine]
18 | ≤ 5 nM | O=C(Cc1ncn2ccc(Cl)cc12)Nc1ccnc(NCc2cn3cc(C4CC4)ccc3n2)n1 [Example 16, 2-(7-chloroimidazo[1,5-a]pyridin-1-yl)-N-(2-(((6-cyclopropylimidazo[1,2-a]pyridin-2-yl)methyl)amino)pyrimidin-4-yl)acetamide]
19 | > 9000 nM | COc1ccc(=O)n(CC(=O)Nc2cc(NCc3cn4cc(C5CC5)ccc4n3)ncn2)c1 [Example 121, N-(6-(((6-cyclopropylimidazo[1,2-a]pyridin-2-yl)methyl)amino)pyrimidin-4-yl)-2-(5-methoxy-2-oxopyridin-1 (2H)-yl)acetamide]
20 | 500 to 9000 nM | N=S(=O)(Nc1cc(NCc2cn3cc(C4CC4)ccc3n2)ncn1)C1CC1c1cccc(Cl)c1 (racemic) [Example 142, (SR,1SR,2RS)-2-(3-chlorophenyl)-N-(6-(((6-cyclopropylimidazo[1,2-a]pyridin-2-yl)methyl)amino)pyrimidin-4-yl)cyclopropane-1-sulfonimidamide]
21 | ≤ 5 nM | O=C(Cc1ncn2ccc(Cl)cc12)Nc1cc(NCc2cn3cc(C4CC4)ccc3n2)nc(C(=O)O)n1 [Example 21, 4-(2-(7-chloroimidazo[1,5-a]pyridin-1-yl)acetamido)-6-(((6-cyclopropylimidazo[1,2-a]pyridin-2-yl)methyl)amino)pyrimidine-2-carboxylic acid]
22 | 5 to 50 nM | O=C(CNc1cc(Cl)ccc1-n1cnnn1)Nc1cc(NCc2cn3cc(C4CC4)ccc3n2)ccn1 [Example 117, 2-((5-chloro-2-(1H-tetrazol-1-yl)phenyl)amino)-N-(4-(((6-cyclopropylimidazo[1,2-a]pyridin-2-yl)methyl)amino)pyridin-2-yl)acetamide]
23 | 5 to 50 nM | COc1ccc(-n2cnnn2)c(CNc2cc(C(O)c3cn4cc(C5CC5)ccc4n3)ncn2)c1F (centres unmarked) [Example 63, (6-cyclopropylimidazo[1,2-a]pyridin-2-yl)(6-((2-fluoro-3-methoxy-6-(H-tetrazol-1-yl)benzyl)amino)pyrimidin-4-yl)methanol]
